# Experimental data reported in EPA's ToxValDB 9.5 (doi:10.2903/j.efsa.2011.2162).
# Legend:
# Aphidius rhopalosiphi [1] = conditions: not reported; reproduction
# Apis mellifera = conditions: acute; duration: 48 hours; dermal; mortality
# Coturnix japonica = conditions: acute; oral; diet; mortality
# Cyprinodon variegatus = conditions: acute; duration: 96 hours; mortality
# Daphnia magna = conditions: chronic/long-term; duration: 21 days; reproduction
# Lepomis macrochirus = conditions: acute; duration: 96 hours; mortality
# Oncorhynchus mykiss = conditions: chronic/long-term; duration: 96 days; growth
# Tagia sp. = conditions: acute; mortality
# Aphidius rhopalosiphi [2] = assay: LR50; higher = less toxic; conditions: acute; duration: 48 hours; mortality
# [3] = reproduction developmental, reproduction
structure (smiles),measurement,setting,value
COP(=S)(OC)SCN1C(=O)c2ccccc2C1=O [Phosmet],LEL,Aphidius rhopalosiphi [1],1.41 g/ha
same,LD50,Apis mellifera,0.22 µg/piece
same,LD50,"Colinus virginianus; acute, oral, mortality",57 mg/kg
same,NOEC,Colinus virginianus; [3],7.5 mg/kg-day
same,LC50,Coturnix japonica,406 mg/kg-day
same,LC50,Cyprinodon variegatus,0.17 µg/mL
same,NOEC,Daphnia magna,0.00078 mg/L
same,LC50,Lepomis macrochirus,0.0197 µg/mL
same,NOEC,Oncorhynchus mykiss,0.0032 mg/L
same,NOAEL,"Rattus norvegicus; acute, neurology",4.5 mg/kg-day
same,LD50,"Rattus norvegicus; acute, oral, mortality",113 mg/kg
same,NOAEL,Rattus norvegicus; [3],1 mg/kg-day
same,NOAEL,"Rattus norvegicus; subchronic, duration: 13 weeks, neurology",1.5 mg/kg-day
same,NOAEL,"Rattus norvegicus; subchronic, duration: 90 days, oral, other",2 mg/kg-day
same,LC50,Tagia sp.,104 mg/kg
same,LR50,Aphidius rhopalosiphi [2],1.95 g/ha
